Assay results: ChEMBL document CHEMBL1201862, “PubChem BioAssay data set” (2004)
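Dose response: 5 concentrations. Exposure: 48 h. Format: 96-well plates. Endpoint: linear interpolation; highest concentration if not reached. Here, GI50 denotes the concentration required for 50% inhibition of growth.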 Activity calls are given as the source filed them. Cut-off read from the data, not from the text of the source: active = GI50 up to about 1.1 µM and inactive = higher.

Columns and labels:
Experiment in all cases: growth of human tumour cells (NCI), 48 h
TK-10 = tested on: TK-10
NCI-H460 = tested on: NCI-H460
OVCAR-5 = tested on: OVCAR-5
SN12C = tested on: SN12C
SNB-75 = tested on: SNB-75
SNB-19 = tested on: SNB-19
NCI-H23 = tested on: NCI-H23
IGROV-1 = tested on: IGROV-1
M14 = tested on: M14
OVCAR-8 = tested on: OVCAR-8
HCT-15 = tested on: HCT-15
OVCAR-3 = tested on: OVCAR-3
A498 = tested on: A498
KM12 = tested on: KM12
EKVX = tested on: EKVX
SF-539 = tested on: SF-539
A549 = tested on: A549
SNB-78 = tested on: SNB-78
DLD-1 = tested on: DLD-1
RPMI-8226 = tested on: RPMI-8226
UACC-62 = tested on: UACC-62
SF-268 = tested on: SF-268
UACC-257 = tested on: UACC-257
SK-OV-3 = tested on: SK-OV-3
ACHN = tested on: ACHN
HCC 2998 = tested on: HCC 2998
SK-MEL-28 = tested on: SK-MEL-28
U-251 = tested on: U-251
KM-20L2 = tested on: KM-20L2
RXF 393 = tested on: RXF 393
UO-31 = tested on: UO-31
LOX IMVI = tested on: LOX IMVI
HT-29 = tested on: HT-29
CCRF-CEM = tested on: CCRF-CEM
NCI-H522 = tested on: NCI-H522
DMS-273 = tested on: DMS-273
786-0 = tested on: 786-0
K562 = tested on: K562
RXF 631 = tested on: RXF 631
MOLT-4 = tested on: MOLT-4
SF-295 = tested on: SF-295
OVCAR-4 = tested on: OVCAR-4
M19-MEL = tested on: M19-MEL
HOP-92 = tested on: HOP-92
LXFL 529 = tested on: LXFL 529
SK-MEL-2 = tested on: SK-MEL-2
DMS-114 = tested on: DMS-114
HOP-18 = tested on: HOP-18
HCT-116 = tested on: HCT-116
HL-60 = tested on: HL-60
SW-620 = tested on: SW-620
COLO 205 = tested on: COLO 205
HOP-62 = tested on: HOP-62
Malme-3M = tested on: Malme-3M
CAKI-1 = tested on: CAKI-1
SK-MEL-5 = tested on: SK-MEL-5
NCI-H226 = tested on: NCI-H226
SR = tested on: SR

For COc1ccc(/C=C2/CCCC/C2=N/O)cc1, the GI50 (TK-10) was > 100 µM (inactive), the GI50 (NCI-H460) was > 100 µM (inactive) and the GI50 (OVCAR-5) was > 100 µM (inactive). The GI50 (SN12C) was 75.7 µM (inactive), the GI50 (SNB-75) was 31.6 µM (inactive) and the GI50 (SNB-19) was > 100 µM (inactive). For the same compound, the GI50 (NCI-H23) was 93.1 µM (inactive), the GI50 (IGROV-1) was 41 µM (inactive) and the GI50 (M14) was > 100 µM (inactive). The GI50 (OVCAR-8) was > 100 µM (inactive), the GI50 (HCT-15) was > 100 µM and the GI50 (OVCAR-3) was > 100 µM (inactive). The GI50 (A498) was 24.2 µM (inactive), the GI50 (KM12) was > 100 µM (inactive) and the GI50 (EKVX) was > 100 µM (inactive). The GI50 (SF-539) was > 100 µM (inactive), the GI50 (A549) was > 100 µM (inactive) and the GI50 (SNB-78) was 94.2 µM (inactive). The GI50 (DLD-1) was 67.5 µM (inactive), the GI50 (RPMI-8226) was > 100 µM (inactive) and the GI50 (UACC-62) was > 100 µM (inactive). For the same compound, the GI50 (SF-268) was 57.9 µM (inactive), the GI50 (UACC-257) was > 100 µM (inactive) and the GI50 (SK-OV-3) was > 100 µM (inactive). The GI50 (ACHN) was 88.9 µM (inactive), the GI50 (HCC 2998) was > 100 µM (inactive) and the GI50 (SK-MEL-28) was > 100 µM (inactive). For the same compound, the GI50 (U-251) was > 100 µM (inactive), the GI50 (KM-20L2) was > 100 µM (inactive) and the GI50 (RXF 393) was 40.8 µM (inactive). The GI50 (UO-31) was > 100 µM (inactive), the GI50 (LOX IMVI) was 29.6 µM (inactive) and the GI50 (HT-29) was > 100 µM (inactive). For the same compound, the GI50 (CCRF-CEM) was 51.6 µM (inactive), the GI50 (NCI-H522) was 40.5 µM (inactive) and the GI50 (DMS-273) was 42.7 µM (inactive). The GI50 (786-0) was > 100 µM (inactive), the GI50 (K562) was > 10 µM (inactive) and the GI50 (RXF 631) was > 100 µM (inactive). The GI50 (MOLT-4) was 42.2 µM (inactive), the GI50 (SF-295) was > 100 µM (inactive) and the GI50 (OVCAR-4) was 69.5 µM (inactive). The GI50 (M19-MEL) was > 100 µM (inactive), the GI50 (HOP-92) was 46.1 µM (inactive) and the GI50 (LXFL 529) was 66.8 µM (inactive). The GI50 (SK-MEL-2) was > 100 µM (inactive), the GI50 (DMS-114) was 42.6 µM (inactive) and the GI50 (HOP-18) was > 100 µM (inactive). The GI50 (HCT-116) was 87.7 µM (inactive), the GI50 (HL-60) was > 100 µM (inactive) and the GI50 (SW-620) was > 100 µM (inactive). For the same compound, the GI50 (COLO 205) was > 100 µM (inactive), the GI50 (HOP-62) was > 100 µM (inactive) and the GI50 (Malme-3M) was > 100 µM (inactive).

For CCOC(=O)C(=O)Nc1cc(Cl)c(Cl)cc1Cl, the GI50 (TK-10) was > 100 µM (inactive), the GI50 (NCI-H460) was > 100 µM (inactive) and the GI50 (OVCAR-5) was > 100 µM (inactive). The GI50 (SN12C) was > 100 µM (inactive), the GI50 (SNB-75) was > 100 µM (inactive) and the GI50 (SNB-19) was > 100 µM (inactive). The GI50 (NCI-H23) was > 100 µM (inactive), the GI50 (IGROV-1) was > 100 µM (inactive) and the GI50 (M14) was > 100 µM (inactive). For the same compound, the GI50 (OVCAR-8) was > 100 µM (inactive), the GI50 (HCT-15) was > 100 µM and the GI50 (OVCAR-3) was > 100 µM (inactive). For the same compound, the GI50 (KM12) was > 100 µM (inactive), the GI50 (EKVX) was > 100 µM (inactive) and the GI50 (SF-539) was > 100 µM (inactive). The GI50 (SNB-78) was > 100 µM (inactive), the GI50 (RPMI-8226) was > 100 µM (inactive) and the GI50 (UACC-62) was > 100 µM (inactive). The GI50 (SF-268) was > 100 µM (inactive), the GI50 (UACC-257) was > 100 µM (inactive) and the GI50 (SK-OV-3) was > 100 µM (inactive). For the same compound, the GI50 (ACHN) was > 100 µM (inactive), the GI50 (HCC 2998) was > 100 µM (inactive) and the GI50 (SK-MEL-28) was > 100 µM (inactive). For the same compound, the GI50 (U-251) was > 100 µM (inactive), the GI50 (KM-20L2) was > 100 µM (inactive) and the GI50 (RXF 393) was > 100 µM (inactive). The GI50 (UO-31) was > 100 µM (inactive), the GI50 (LOX IMVI) was > 100 µM (inactive) and the GI50 (HT-29) was > 100 µM (inactive). For the same compound, the GI50 (CAKI-1) was > 100 µM (inactive), the GI50 (NCI-H522) was > 100 µM (inactive) and the GI50 (DMS-273) was > 100 µM (inactive). The GI50 (786-0) was > 100 µM (inactive), the GI50 (K562) was > 100 µM (inactive) and the GI50 (RXF 631) was > 100 µM (inactive). For the same compound, the GI50 (MOLT-4) was > 100 µM (inactive), the GI50 (SF-295) was > 100 µM (inactive) and the GI50 (OVCAR-4) was > 100 µM (inactive). For the same compound, the GI50 (M19-MEL) was > 100 µM (inactive), the GI50 (HOP-92) was > 100 µM (inactive) and the GI50 (LXFL 529) was > 100 µM (inactive). The GI50 (SK-MEL-2) was > 100 µM (inactive), the GI50 (SK-MEL-5) was > 100 µM (inactive) and the GI50 (DMS-114) was > 100 µM (inactive). The GI50 (NCI-H226) was > 100 µM (inactive), the GI50 (HCT-116) was > 100 µM (inactive) and the GI50 (SW-620) was > 100 µM (inactive). The GI50 (COLO 205) was > 100 µM (inactive), the GI50 (HOP-62) was > 100 µM (inactive) and the GI50 (Malme-3M) was > 100 µM (inactive).

In the case of CC(=O)C1C(=O)C(=O)N(c2ccccc2N2C(=O)C(=O)C(C(C)=O)C2=O)C1=O (configuration not stated), the GI50 (TK-10) is reported as > 100 µM (inactive), the GI50 (NCI-H460) is reported as > 100 µM (inactive) and the GI50 (OVCAR-5) is reported as > 100 µM (inactive). The GI50 (SN12C) was > 100 µM (inactive), the GI50 (SNB-75) was > 100 µM (inactive) and the GI50 (SNB-19) was > 100 µM (inactive). The GI50 (NCI-H23) was > 100 µM (inactive), the GI50 (IGROV-1) was > 100 µM (inactive) and the GI50 (M14) was > 100 µM (inactive). The GI50 (OVCAR-8) was > 100 µM (inactive), the GI50 (HCT-15) was > 100 µM and the GI50 (OVCAR-3) was > 100 µM (inactive). For the same compound, the GI50 (A498) was > 100 µM (inactive), the GI50 (KM12) was > 100 µM (inactive) and the GI50 (EKVX) was 39.9 µM (inactive). For the same compound, the GI50 (SF-539) was > 100 µM (inactive), the GI50 (A549) was > 100 µM (inactive) and the GI50 (SNB-78) was > 100 µM (inactive). The GI50 (DLD-1) was > 100 µM (inactive), the GI50 (RPMI-8226) was > 100 µM (inactive) and the GI50 (UACC-62) was > 100 µM (inactive). The GI50 (SF-268) was > 100 µM (inactive), the GI50 (UACC-257) was > 100 µM (inactive) and the GI50 (SK-OV-3) was > 100 µM (inactive). For the same compound, the GI50 (ACHN) was > 100 µM (inactive), the GI50 (HCC 2998) was > 100 µM (inactive) and the GI50 (SK-MEL-28) was > 100 µM (inactive). For the same compound, the GI50 (U-251) was > 100 µM (inactive), the GI50 (KM-20L2) was > 100 µM (inactive) and the GI50 (RXF 393) was > 100 µM (inactive). The GI50 (UO-31) was > 100 µM (inactive), the GI50 (LOX IMVI) was > 100 µM (inactive) and the GI50 (HT-29) was > 100 µM (inactive). For the same compound, the GI50 (CAKI-1) was > 100 µM (inactive), the GI50 (CCRF-CEM) was > 100 µM (inactive) and the GI50 (NCI-H522) was > 100 µM (inactive). For the same compound, the GI50 (786-0) was > 100 µM (inactive), the GI50 (K562) was > 100 µM (inactive) and the GI50 (RXF 631) was > 100 µM (inactive). For the same compound, the GI50 (MOLT-4) was > 100 µM (inactive), the GI50 (SR) was > 100 µM (inactive) and the GI50 (SF-295) was > 100 µM (inactive). The GI50 (OVCAR-4) was > 100 µM (inactive), the GI50 (M19-MEL) was > 100 µM (inactive) and the GI50 (HOP-92) was > 100 µM (inactive). For the same compound, the GI50 (LXFL 529) was > 100 µM (inactive), the GI50 (SK-MEL-2) was > 100 µM (inactive) and the GI50 (SK-MEL-5) was > 100 µM (inactive). For the same compound, the GI50 (DMS-114) was > 100 µM (inactive), the GI50 (NCI-H226) was > 100 µM (inactive) and the GI50 (HOP-18) was > 100 µM (inactive). The GI50 (HCT-116) was > 100 µM (inactive), the GI50 (HL-60) was > 100 µM (inactive) and the GI50 (SW-620) was > 100 µM (inactive). The GI50 (COLO 205) was > 100 µM (inactive), the GI50 (HOP-62) was > 100 µM (inactive) and the GI50 (Malme-3M) was > 100 µM (inactive).
